From ChEMBL document CHEMBL1124430, “Dermorphin analogues carrying an increased positive net charge in their "message" domain display extremely high mu opioid receptor selectivity” (J Med Chem, 1989) come the findings set out here.

Square brackets hold non-standard residues; d marks the D form. Peptide text beside a SMILES is read from it. dNle = CCCC[C@@H](N)C(=O)O; dNva = CCC[C@@H](N)C(=O)O; Orn = NCCC[C@H](N)C(=O)O

The species entered for test [1] is Cavia porcellus. Briefly: Ke value for naloxon as antagonist (compound) was measured by using Guinea pig ileum assay. It is filed as functional.
The species entered for test [2] is Cavia porcellus. Briefly: The relative potency of compound was measured by comparing the potency of compound to the [Leu]enkephalin in Guinea pig ileum(GPI) assay. In kind it is functional.
The species named for test [3] is Mus musculus. Briefly: The relative potency of compound was measured by comparing the potency of compound to the [Leu]enkephalin in Mouse vas deferens (MVD) assay. In kind it is functional.
The species named for test [4] is Mus musculus. Put plainly: Ke value for naloxone as antagonist (compound) was measured by using Mouse vas deferens (MVD) assay. It is filed as functional.
A short description of test [5]: Ratio of IC50 in Mouse vas deferens and Guinea pig ileum assay. It is filed as functional.
For test [6], the species on record is Cavia porcellus. Put plainly: Concentration of compound to inhibit 50% (IC50) electrically evoked contractions was tested in Guinea pig ileum(GPI) assay. In kind it is functional.
The species named for test [7] is Mus musculus. Put plainly: Concentration of compound to inhibit 50% (IC50) electrically evoked contractions was tested in Mouse vas deferens (MVD) assay. In kind it is functional.
In test [8] the target is T1, Delta-type opioid receptor (Rattus norvegicus, UniProt P33533). Briefly: Binding affinity against opioid receptor delta by displacement of radioligand [3H]DSLET in rat brain membrane. It is filed as cell membranes.
T1 sequence (P33533 whole entry): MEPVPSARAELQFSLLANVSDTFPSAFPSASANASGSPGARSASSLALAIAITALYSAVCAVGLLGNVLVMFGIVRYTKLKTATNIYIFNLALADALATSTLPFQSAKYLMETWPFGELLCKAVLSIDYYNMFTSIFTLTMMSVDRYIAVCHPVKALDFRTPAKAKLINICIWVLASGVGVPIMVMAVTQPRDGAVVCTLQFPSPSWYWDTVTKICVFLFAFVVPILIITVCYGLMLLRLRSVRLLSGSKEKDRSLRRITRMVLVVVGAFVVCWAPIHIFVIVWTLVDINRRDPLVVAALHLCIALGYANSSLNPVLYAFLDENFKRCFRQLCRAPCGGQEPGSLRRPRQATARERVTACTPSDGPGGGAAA
The target in test [9] is T2, Mu-type opioid receptor (Rattus norvegicus, UniProt P33535). Put plainly: Binding affinity against opioid receptor mu by displacement of radioligand [3H]DAGO in rat brain membrane. It is filed as cell membranes.
T2 sequence (P33535 whole entry): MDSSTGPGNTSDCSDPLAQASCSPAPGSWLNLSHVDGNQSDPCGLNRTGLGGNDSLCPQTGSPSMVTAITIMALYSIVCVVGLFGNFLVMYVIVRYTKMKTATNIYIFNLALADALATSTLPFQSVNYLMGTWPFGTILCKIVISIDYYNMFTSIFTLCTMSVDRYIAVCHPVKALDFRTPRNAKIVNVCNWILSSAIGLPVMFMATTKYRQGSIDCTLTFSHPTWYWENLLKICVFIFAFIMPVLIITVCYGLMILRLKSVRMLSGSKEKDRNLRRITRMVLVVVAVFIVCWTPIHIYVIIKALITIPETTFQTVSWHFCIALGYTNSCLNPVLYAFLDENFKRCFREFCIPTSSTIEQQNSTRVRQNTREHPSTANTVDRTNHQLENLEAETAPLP
The target in test [10] is T1, Delta-type opioid receptor. Put plainly: Binding affinity against delta opioid receptor by displacement of radioligand [3H]DSLET in rat brain membrane. In kind it is cell membranes.
In test [11] the target is T2, Mu-type opioid receptor. Put plainly: Binding affinity against mu opioid receptor by displacement of radioligand [3H]DAGO in rat brain membrane. In kind it is cell membranes.
The target of test [12] is Delta-type opioid receptor (Rattus norvegicus) (UniProt P33533). Put plainly: The relative potency of compound was measured against opioid receptor delta to that of [Leu]enkephalin in [3H]DSLET binding assay.
Chain of Delta-type opioid receptor (Rattus norvegicus) (P33533 whole entry): as the sequence (P33533 whole entry) above
In test [13] the target is Mu-type opioid receptor (Rattus norvegicus) (UniProt P33535). Briefly: The relative potency of compound was measured against Opioid receptor mu to that of [Leu]enkephalin in [3H]DAGO binding assay.
Chain of Mu-type opioid receptor (Rattus norvegicus) (P33535 whole entry): as the sequence (P33535 whole entry) above
The target is the same in test [14]. Briefly: Ratio of binding affinity of opioid receptor mu and opioid receptor delta.
Test [15] is filed under the species Cavia porcellus. Briefly: The relative potency of compound was measured by comparing with [Leu]enkephalin in Guinea pig ileum(GPI) assay. It is filed as functional.
The species named for test [16] is Mus musculus. Put plainly: The relative potency of compound was measured by comparing with [Leu]enkephalin in Mouse vas deferens (MVD) assay. In kind it is functional.
Test [17] has as its target T1, Delta-type opioid receptor. Put plainly: Binding affinity against Opioid receptor delta 1 by displacement of radioligand [3H]DSLET in rat brain membrane. In kind it is cell membranes.
Test [18] addresses T2, Mu-type opioid receptor. Put plainly: Binding affinity against Opioid receptor mu 1 by displacement of radioligand [3H]DAGO in rat brain membrane. In kind it is cell membranes.
Test [19] addresses Delta-type opioid receptor (Rattus norvegicus) (UniProt P33533). Briefly: The relative potency of compound was measured against dOpioid receptor delta 1 to that of [Leu]enkephalin in [3H]DSLET binding assay.
Test [20] has as its target Mu-type opioid receptor (Rattus norvegicus) (UniProt P33535). Put plainly: The relative potency of compound was measured against Opioid receptor mu 1 to that of [Leu]enkephalin in [3H]DAGO binding assay.
The target in test [21] is T2, Mu-type opioid receptor. Put plainly: Binding affinity against Opioid receptor mu 1 by displacement of radioligand [3H]-DAGO in rat brain membrane. In kind it is cell membranes.
In test [22] the target is Delta-type opioid receptor (Rattus norvegicus) (UniProt P33533). Put plainly: The relative potency of compound was measured against Opioid receptor delta 1 to that of [Leu]enkephalin in [3H]DSLET binding assay.

As for `NC(=O)[C@@H]1CC(=O)NCCC[C@@H](NC(=O)[C@@H](N)c2ccc(O)cc2)C(=O)N[C@@H](Cc2ccccc2)C(=O)N1` [listing 1 of 2 here], the values for the Ke in the test listed under Cavia porcellus [1] and in the test listed under Mus musculus [4] were 1.57 nM and 2.11 nM, respectively. Moreover, the Relative potency in the test listed under Cavia porcellus [2] is on record as 6.8; in the test filed under Mus musculus [3], 0.00294. The Ratio in test [5] came out at 107.
Consider `NC(=O)[C@@H]1CC(=O)NCCC[C@@H](NC(=O)[C@@H](N)c2ccc(O)cc2)C(=O)N[C@@H](Cc2ccccc2)C(=O)N1` [listing 2 of 2 here], for which the half-inhibitory concentration (IC50) in the test listed under Cavia porcellus [6] was 36.2 nM; in the test filed under Mus musculus [7], 3880 nM. Further, the Ki is 2220 nM in test [8] and 10.4 nM on Mu-type opioid receptor [9].
On to `N=C(N)NCCC[C@@H](NC(=O)C(N)Cc1ccc(O)cc1)C(=O)NC(Cc1ccccc1)C(=O)NCCC(N)C(=O)O` (stereo not given in full), for which the inhibitory constant (Ki) turned out to be 12600 nM in [8] and 5.78 nM on Mu-type opioid receptor [9].
Take `NC(=O)[C@H](CCCN=C(N)N)NC(=O)[C@H](CCCN=C(N)N)NC(=O)[C@@H]1CC(=O)NCCC[C@@H](NC(=O)[C@@H](N)Cc2ccc(O)cc2)C(=O)N[C@@H](Cc2ccccc2)C(=O)N1` [listing 1 of 2 here]: the IC50 in the test listed under Cavia porcellus [6] was found to be 40.9 nM; in the test filed under Mus musculus [7], 745 nM. The Ki came to 1880 nM in test [10] and 23.6 nM at Mu-type opioid receptor [11].
For `NC(=O)[C@H]1CC(=O)NCCC[C@H](NC(=O)[C@@H](N)c2ccc(O)cc2)C(=O)N[C@@H](Cc2ccccc2)C(=O)N1`, the Relative potency worked out at 0.00114 in test [12] and 0.907 in test [13]. Besides, in test [14], the Ratio came out at 213.
`NCCCC[C@H](NC(=O)[C@H](Cc1ccccc1)NC(=O)[C@@H](CCCN=C(N)N)NC(=O)[C@@H](N)Cc1ccc(O)cc1)C(N)=O`: the Ke in the test listed under Cavia porcellus [1] is recorded as 1.17 nM; in the test filed under Mus musculus [4], 1.64 nM. The IC50 in the test listed under Cavia porcellus [6] turned out to be 254 nM; in the test filed under Mus musculus [7], 781 nM.
As for `NC(N)=NCCC[C@@H](NC(=O)C(N)Cc1ccc(O)cc1)C(=O)NC(Cc1ccccc1)C(=O)NCCC(N)C(=O)O` (stereo not given in full), the Ke came out at 1.32 nM in the test filed under Cavia porcellus [1] and 1.01 nM in the test listed under Mus musculus [4]. Moreover, the IC50 worked out at 257 nM in the test listed under Cavia porcellus [6] and 659 nM in the test filed under Mus musculus [7]. Also, the Relative potency was 0.956 in the test listed under Cavia porcellus [2], 0.0173 in the test filed under Mus musculus [3], 0.000202 in test [12] and 1.63 in [13]. Besides, the values for the Ratio in [14] and in [5] were 2180 and 2.56, respectively.
Regarding `NCCC[C@H](NC(=O)[C@H](Cc1ccccc1)NC(=O)[C@@H](CCCN=C(N)N)NC(=O)[C@@H](N)Cc1ccc(O)cc1)C(N)=O`, the values for the Ke in the test listed under Cavia porcellus [1] and in the test filed under Mus musculus [4] were 1.24 nM and 1.13 nM, respectively. Also, the figures for the IC50 in the test listed under Cavia porcellus [6] and in the test filed under Mus musculus [7] were 346 nM and 1090 nM, respectively. The Relative potency was found to be 0.712 in the test listed under Cavia porcellus [2], 0.0105 in the test listed under Mus musculus [3], 0.000272 in [12] and 7.83 in test [13]. The Ratio was found to be 7740 in [14] and 3.15 in [5].
`CCCC[C@H](NC(=O)[C@H](Cc1ccccc1)NC(=O)[C@@H](CCC)NC(=O)[C@@H](N)Cc1ccc(O)cc1)C(N)=O`: the values for the Ke in the test filed under Cavia porcellus [1] and in the test listed under Mus musculus [4] were 1.72 nM and 1.27 nM, respectively. Further, the Relative potency in the test listed under Cavia porcellus [15] is 8.04; in the test listed under Mus musculus [16], 0.0745; in test [19], 0.014; in [20], 2.67. Moreover, the IC50 in the test filed under Cavia porcellus [6] amounted to 30.6 nM; in the test filed under Mus musculus [7] it was 153 nM. Also, the results for the Ki (in test [17]; at Mu-type opioid receptor [18]) were 181 nM and 3.53 nM, respectively. In addition, in test [5], the Ratio came out at 5.
With `C[C@@H](NC(=O)[C@@H](N)Cc1ccc(O)cc1)C(=O)N[C@@H](Cc1ccccc1)C(=O)N[C@@H](Cc1ccccc1)C(=O)N[C@@H](CCCN=C(N)N)C(=O)N[C@@H](CCCN=C(N)N)C(N)=O`, the Ke in the test listed under Cavia porcellus [1] stood at 0.57 nM; in the test listed under Mus musculus [4], 1.27 nM. The figures for the IC50 in the test listed under Cavia porcellus [6] and in the test listed under Mus musculus [7] were 21.6 nM and 1300 nM, respectively. In addition, the Relative potency is 11.4 in the test filed under Cavia porcellus [2], 0.00875 in the test filed under Mus musculus [3], 0.0152 in test [22] and 3.67 in [20]. Moreover, the Ki in test [17] came out at 167 nM; on Mu-type opioid receptor [21], 2.57 nM. Further, the Ratio in test [5] worked out at 60.2.
As for `CCCC[C@@H](NC(=O)[C@@H](N)Cc1ccc(O)cc1)C(=O)N[C@@H](Cc1ccccc1)C(=O)N[C@@H](CCCN)C(N)=O` (H-Y[dNle]F[Orn]-NH2), the Ke in the test listed under Cavia porcellus [1] came to 1.01 nM; in the test filed under Mus musculus [4] it was 1.5 nM. The figures for the Relative potency in the test listed under Cavia porcellus [15] and in the test filed under Mus musculus [16] were 1.46 and 0.00498, respectively. The IC50 came to 168 nM in the test listed under Cavia porcellus [6] and 2290 nM in the test listed under Mus musculus [7]. Further, the Ratio in test [5] stood at 13.6.
Regarding `NC(=O)[C@H](CCCN=C(N)N)NC(=O)[C@H](CCCN=C(N)N)NC(=O)[C@@H]1CC(=O)NCCC[C@@H](NC(=O)[C@@H](N)Cc2ccc(O)cc2)C(=O)N[C@@H](Cc2ccccc2)C(=O)N1` [listing 2 of 2 here], the results for the Ke in the test filed under Cavia porcellus [1] and in the test listed under Mus musculus [4] were 2.03 nM and 2.02 nM, respectively. Also, the Relative potency worked out at 6.01 in the test listed under Cavia porcellus [2] and 0.0153 in the test filed under Mus musculus [3]. Further, the Ratio in [5] is recorded as 18.2.
For the compound `CCC[C@@H](NC(=O)[C@@H](N)Cc1ccc(O)cc1)C(=O)N[C@@H](Cc1ccccc1)C(=O)N[C@@H](CCCN)C(N)=O` (H-Y[dNva]F[Orn]-NH2), the Ke came out at 1.55 nM in the test filed under Cavia porcellus [1] and 1.47 nM in the test filed under Mus musculus [4]. Also, the figures for the Relative potency in the test listed under Cavia porcellus [15] and in the test filed under Mus musculus [16] were 2.36 and 0.042, respectively. In addition, the values for the IC50 in the test listed under Cavia porcellus [6] and in the test listed under Mus musculus [7] were 104 nM and 271 nM, respectively. In addition, the Ratio in [5] is on record as 2.61.
For the compound `C[C@@H](NC(=O)[C@@H](N)Cc1ccc(O)cc1)C(=O)N[C@@H](Cc1ccccc1)C(=O)N[C@@H](Cc1ccccc1)C(N)=O` (H-Y[dA]FF-NH2), the Ke stood at 0.789 nM in the test filed under Cavia porcellus [1] and 1.31 nM in the test listed under Mus musculus [4]. The Relative potency is 76.2 in the test filed under Cavia porcellus [15], 0.0143 in the test filed under Mus musculus [16], 0.00405 in [22] and 6.15 in [20]. Besides, the results for the IC50 in the test listed under Cavia porcellus [6] and in the test listed under Mus musculus [7] were 3.23 nM and 797 nM, respectively. In test [5], the Ratio came to 247.
Turning to `C[C@@H](NC(=O)[C@@H](N)Cc1ccc(O)cc1)C(=O)NCC(=O)N(C)[C@@H](Cc1ccccc1)C(=O)NCCO` [DAMGO], the IC50 in the test filed under Cavia porcellus [6] came out at 28.3 nM; in the test listed under Mus musculus [7], 950 nM. In test [17], this compound showed a Ki of 1280 nM.
